Results from US20090062122A1, “Cotton Growth Regulator” (FMC Corporation, priority 2006, published 2009).

Tested on: cotton, variety D&PL 555
Test: % defoliation of cotton plants, field trial
Type: in vivo
Description: The trial was performed on cotton, variety D&PL 555. The formulated test compounds were diluted to the appropriate concentrations with water to which a crop oil concentrate (1% to 2% v/v) or a non-ionic surfactant (0.25% v/v) was added. The application of the test composition as a cotton plant growth regulator was performed using pressurized, over-the-top spray equipment consisting of a research scale boom sprayer. Deposit of the test composition was primarily to the top of the cotton plants, minimizing spray deposition to lower branches, leaves and fruit. The finished spray volume was 10 gallons per acre, with sprayer nozzle design, orientation and nozzle pressures chosen to prevent spray drift. Applications were made at first sign of cotton boll opening and at 15%, 20% and 40% open bolls.
The experimental design used randomized plots with 1 to 4 treatment rates of test composition and from 1 to 10 replications depending on the test (sees tables below). The size of each experimental plot was about 15 m^2. Testing was performed in Texas, North Carolina, Mississippi and Georgia.
Percent desiccation, percent defoliation, percent terminal control and percent open bolls were evaluated at 7 and 14 days after application (DAA) of the test composition. Inspection of cotton plants for insect control of armyworm larvae was performed at 2 DAA and insect damage to bolls was performed at the time of harvest
Defoliation refers to removal of leaves. Percent defoliation rating approximates the proportion of leaves of all sizes shed per 100 leaves present prior to application of the cotton growth regulator compound. An evaluation of the foliage in the untreated check plots was first undertaken. Then the test plots were individually evaluated. The percent of leaves dropped by the plants in the treated plot was determined using observations within the plot and comparisons to foliage in the untreated plot.
The results, shown as the mean of the indicated number of replications, were compared with results observed in the same trials with an untreated control.

CCOC(=O)C(Cl)Cc1cc(-n2nc(C)n(C(F)F)c2=O)c(F)cc1Cl (centres unmarked) [carfentrazone-ethyl, ethyl 2-chloro-3-[2-chloro-5-(4-difluoromethyl-3-methyl-5-oxo-4,5-dihydro-[1,2,4]-triazol-1-yl)-4-fluorophenyl]propionate]
% Defoliation (15% open boll application, 0.004 lb ai/a, 14 DAA, 10 replicates): 28%
% Defoliation (15% open boll application, 0.006 lb ai/a, 14 DAA, 10 replicates): 33%
% Defoliation (15% open boll application, 0.008 lb ai/a, 14 DAA, 10 replicates): 39%
% Defoliation (15% open boll application, 0.01 lb ai/a, 14 DAA, 10 replicates): 41%
% Defoliation (20% open boll application, 0.002 lb ai/a, 7 DAA, 3 replicates): 9%
% Defoliation (20% open boll application, 0.002 lb ai/a, 14 DAA, 3 replicates): 17%
% Defoliation (20% open boll application, 0.004 lb ai/a, 7 DAA, 3 replicates): 25%
% Defoliation (20% open boll application, 0.004 lb ai/a, 14 DAA, 3 replicates): 38%
% Defoliation (20% open boll application, 0.006 lb ai/a, 7 DAA, 3 replicates): 22%
% Defoliation (20% open boll application, 0.006 lb ai/a, 14 DAA, 3 replicates): 34%
% Defoliation (20% open boll application, 0.008 lb ai/a, 7 DAA, 3 replicates): 24%
% Defoliation (20% open boll application, 0.008 lb ai/a, 14 DAA, 3 replicates): 36%
% Defoliation (40% open boll application, 0.004 lb ai/a, 7 DAA, 1 replicate): 61%
% Defoliation (40% open boll application, 0.006 lb ai/a, 7 DAA, 1 replicate): 58%
% Defoliation (40% open boll application, 0.008 lb ai/a, 7 DAA, 1 replicate): 67%
% Defoliation (first open boll application, 0.002 lb ai/a, 7 DAA, 4 replicates): 6%
% Defoliation (first open boll application, 0.002 lb ai/a, 14 DAA, 4 replicates): 15%
% Defoliation (first open boll application, 0.004 lb ai/a, 7 DAA, 4 replicates): 12%
% Defoliation (first open boll application, 0.004 lb ai/a, 14 DAA, 4 replicates): 25%
% Defoliation (first open boll application, 0.006 lb ai/a, 7 DAA, 4 replicates): 13%
% Defoliation (first open boll application, 0.006 lb ai/a, 14 DAA, 4 replicates): 28%
% Defoliation (first open boll application, 0.008 lb ai/a, 7 DAA, 4 replicates): 12%
% Defoliation (first open boll application, 0.008 lb ai/a, 14 DAA, 4 replicates): 23%
